# Laboratory results as given in patent US7291730B2, “Pyrimidine compounds and their use” (Sumitomo Chemical Company, Limited, priority 2000, dated 2007).
# System: Western Flower Thrips (Frankliniella occidentalis)
# Experiment: Insecticidal test against western flower thrips, sprayed cucumber leaves (Test Example 3)
# Format: in vivo
# Settings: 500 ppm, sprayed 20 ml/cup onto cucumber, thirty larvae on cut first foliage leaves, after 7 days
# Procedure: A formulation of a test compound obtained in Formulation Example 5 was diluted with water so that the active ingredient concentration came to 500 ppm to prepare a test spray solution. The seeds of cucumber were planted in polyethylene cups and grown until their first foliage leaves developed, and the above test spray solution was sprayed at the rate of 20 ml/cup onto these cucumber plants. After the chemical solution sprayed onto the cucumber plants was dried, the first foliage leaves were cut off and placed on a water-containing filter paper (70 mm in diameter) in a polyethylene cup (110 mm in diameter). Thirty larvae of western flower thrips (Frankliniella occidentalis) were set free in the polyethylene cup, and the lid was put on the polyethylene cup. After 7 days, the number of surviving insects was examined.
row,SMILES,number of surviving insects
1,C#CCOc1cc(OCC#CCC)ncn1 [(5)],zero
2,CC#CCOc1cc(OCC#CC)ncn1 [(1)],zero
3,C#CCOc1cc(OCc2ccccc2)ncn1 [(13)],zero
4,C#CCOc1cc(Oc2cccc(C(F)(F)F)c2)ncn1 [(17)],zero
5,C#CCOc1cc(-c2ccccc2F)ncn1 [(54)],zero
